Test results as given in patent publication US20040087655A1, “6-Substituted indanoyl amino acid conjugates as mimics to the biological activity of coronatine” (priority 2001, published 2004).

Legend:
[1] = system: Lima bean Phaseolus lunatus; assay: Induction of volatile emission in cut Lima bean plantlets (headspace collection, GC-MS); type: in vivo; settings: for induction of C16 terpenoid TMTT emission / induction of methyl salicylate emission: volatile blend, FIG. 2
Experimental: Plant material: Induction experiments were performed with plantlets of the Lima bean Phaseolus lunatus (Ferry Morse cv. Jackson Wonder Bush). Individual plants were grown from seed in a plastic pot (Ø=5.5 cm) at 23° C. and 80% humidity using daylight fluorescent tubes at ca. 270 μE m^2 st^−1 with a photophase of 14 h. Experiments were conducted with 12-16 day-old seedlings showing two fully developed leaves.
Induction experiments: Plantlets of P. lunatus with two fully developed primary leaves were cut with razor blades and immediately transferred into Eppendorf vials containing a solution of the test-substance in tap water (100 μl). Solutions of the unsubstituted prior art compound indanoyl-L-isoleucine and of 6 -ethyl indanoyl-L-isoleucine methyl ester according to the invention were applied at 10, 100 and 1000 μM. Coronatne was used as a 100 μM aqueous solution. After uptake of the solution, the plantlets were placed into vials with tap water (5 ml) and were enclosed in small desiccators (750 ml) and maintained at 25° C. for 24 h. Control experiments were conducted under identical conditions by placing freshly cut plantlets into tap water. All experiments were carried out in triplicate.
Collection and analysis of headspace volatiles: The volatiles emitted from the pre-treated plants were collected continuously on small charcoal traps (1 mg charcoal, CLSA-Filter, Le Ruisseau de Montbrun, F-09350 Daumazan sur Arize, France) over a period of 24 h using air circulation as described in J. Donath and W. Boland, Phytochemistry 1995, 39, 785-790.
After desorption of the volatiles from the carbon trap with 40 μl of a solution of 1-bromodecane (internal standard, 50 μM) in dichloromethane. The extracts were directly analysed by GC/MS. GC-conditions: Fused-silica capillary (30 m×0.25 mm) coated with DB 5 (0.25 μm). Helium at […] served as carrier gas. Separation of the compounds was achieved under programmed conditions (50° C. for 2 min, then at 10° C. min^−1 to 200° C., finally at 35° C. min^−1 to 280° C.). MS: Finnigan GCQ; GC-interface at 265° C.; scan range 35-450 Da. Individual compounds (peak area) were quantified with respect to the peak area of the internal standard.

[2] = system: touch-sensitive tendrils of Bryonia dioica; assay: Tendril coiling of Bryonia dioica shoots; type: in vivo; parameters: key to tendril coiling at 500 μm concentration / tendril coiling 100 μm concentration / tendril coiling 10 μm concentration: −: no coiling; +: minor coiling; ++: Considerable coiling; +++: intense coiling; settings: for tendril coiling 10 μm concentration / tendril coiling 100 μm concentration / tendril coiling at 500 μm concentration: followed over 20 h
Experimental: Tendril coiling: To test the ability of the conjugates to induce tendril coiling, shoots of Bryonia dioica with the youngest, most well-developed tendrils were cut and immediately placed into vials with the test solution (2 ml) with the indanoyl conjugates (5-1000 μM) or coronatine (5-100 μM) and the extent of coiling was followed over a period of 20 h. The efficacy of the compounds as to their ability to induce tendril coiling was evaluated by the experimentator accordihg to the following scale: […]

[3] = system: internal level of salicylic acid in plants; assay: Internal level of salicylic acid in pre-treated plants; type: in vivo; settings: plants pre-treated with the compound
[4] = in particular in solution; contact with light; cited from earlier work

Compound	induction of C16 terpenoid TMTT emission [1]	induction of methyl salicylate emission [1]	tendril coiling 10 μm concentration [2]	tendril coiling 100 μm concentration [2]	tendril coiling at 500 μm concentration [2]	concentration inducing the coiling reaction (threshold concentration) ([2]; tendrils of Bryonia dioica)	concentration necessary to induce a coiling response ([2]; tendrils of Bryonia dioica)	increase of salicylate (internal level of salicylic acid) [3] [fold]	up-regulation of biosynthesis of 4,8-dimethyl-nona-1,3,7-triene (DMNT) ([1]; compared with the unsubstituted prior art compound)	threshold concentration ([1]; induction of volatiles)	fold more active than the prior art compound unsubstituted at the 6-position ([1]; volatile induction, relative to 1-oxo-indanoyl-isoleucine methyl ester)	stability [4]
CCC1CC1(NC(=O)C1=C[C@H](CC)C[C@@H]2C(=O)CC[C@H]12)C(=O)O (stereo partly drawn) [coronatine]	induced	induced	++	+++	+++	about 2 μM						
CC[C@H](C)[C@H](NC(=O)c1cccc2c1CCC2=O)C(=O)OC [1-oxo-indanoyl isoleucine methyl ester, 1-oxo-indanoyl-isoleucine methyl ester]			−	+	++		about 1 mM					
CCc1cc2c(c(C(=O)NC(C(=O)OC)C(C)CC)c1)CCC2=O (stereo not drawn) [2-[(6-Ethyl-1-oxo-indane-4-carbonyl)-amino]-3-methyl-pentanoic acid methyl ester]	induced	induced	+	+++	+++	20 µM		8	much more pronounced	less than 10 μM	30-50 fold	
6-azido-1-oxo-indanoyl isoleucine derivative												unstable
